Reference: PubChem BioAssay AID1259371 (The Scripps Research Institute Molecular Screening Center, 2018)
Calls of active or inactive are those of the source. No rule for the calls is given here.

Each compound was assayed against Microphthalmia-associated transcription factor (Homo sapiens) (UniProt O75030) (assay: MITF inhibitors, potency by titration, dose response, biochemical, AlphaScreen, human (AID 1259371)). Conditions: AlphaScreen biochemical MITF assay, signal inhibition.
Chain of Microphthalmia-associated transcription factor (Homo sapiens) (O75030 whole entry, looked up): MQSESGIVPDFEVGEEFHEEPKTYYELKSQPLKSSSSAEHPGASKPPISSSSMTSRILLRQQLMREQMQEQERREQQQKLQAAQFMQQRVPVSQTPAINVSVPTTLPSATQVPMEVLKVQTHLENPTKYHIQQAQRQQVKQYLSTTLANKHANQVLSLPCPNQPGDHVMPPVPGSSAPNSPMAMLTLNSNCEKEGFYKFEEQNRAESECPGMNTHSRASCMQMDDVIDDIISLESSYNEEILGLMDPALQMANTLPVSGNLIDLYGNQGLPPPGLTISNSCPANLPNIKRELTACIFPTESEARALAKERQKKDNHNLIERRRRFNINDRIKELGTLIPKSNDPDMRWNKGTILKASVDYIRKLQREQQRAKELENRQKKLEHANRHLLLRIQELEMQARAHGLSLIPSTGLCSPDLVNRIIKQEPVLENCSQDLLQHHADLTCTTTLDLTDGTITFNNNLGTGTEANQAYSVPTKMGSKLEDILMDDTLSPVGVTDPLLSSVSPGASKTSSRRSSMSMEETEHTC

Row | Structure (SMILES) | IC50
1 | CN1C(=O)[C@H]2CN(C(=O)NCc3ccccc3)CCN2C(=O)[C@@H]1Cc1ccccc1 | inactive
2 | CCC[C@@H]1NC(=O)[C@H]2CN(C(=O)NCc3ccccc3)CCN2C1=O | 826 nM
3 | O=c1[nH]cc(N=Cc2ccc([N+](=O)[O-])o2)c(=O)[nH]1 | 7 nM
4 | Cc1cc2ncn(Cc3noc(-c4ccco4)n3)c2cc1C | > 6480 nM (inactive)
5 | O=c1c2ccccc2nc(-c2ccccc2)n1-c1ccccc1O | > 6500 nM (inactive)
6 | CCC(C)NCCOc1cccc(Br)c1 (configuration not stated) | > 6480 nM (inactive)
7 | CCOC(=O)C1C2NC(=S)N(CC)C1(C)Oc1ccc(Br)cc12 (configuration not stated) | > 6310 nM (inactive)
8 | O=C(NCCO)c1cccc(-c2cccs2)c1 | inactive
9 | N#Cc1c(-c2ccc3c(c2)OCO3)nc(N2CCCCC2)[nH]c1=O | inactive
10 | C[C@@H]1NC(=O)[C@H]2CN(C(=O)NC3CCCCC3)CCN2C1=O | inactive
11 | CN(C)c1ccc(NC(=O)CSc2ncccc2C(=O)O)cc1 | inactive
12 | O=C(CCCCC1SCC2NC(=O)NC21)NC1(c2ccc3c(c2)OCO3)CCCC1 (configuration not stated) | inactive
13 | C[C@@H](OCc1ccccc1)[C@@H]1NC(=O)[C@H]2CN(C(=O)NCc3ccccc3)CCN2C1=O | inactive
14 | CC1CCC(N2CCN(Cc3ccco3)CC2)CC1 (configuration not stated) | inactive
15 | CNC(=O)Nc1ccc2nc(-c3ccco3)c(-c3ccco3)nc2c1 | 47.4 nM
16 | O=C(NCc1cccnc1)c1ccnc(-c2cccs2)c1 | inactive
17 | CC(C)(C)c1ccc(OCCn2cncn2)c(Cl)c1 | > 6480 nM (inactive)
18 | O=C(/C=C/c1ccco1)ON1C(=O)c2ccccc2C1=O | > 6480 nM (inactive)
19 | COc1c(O)cc(O)cc1O | inactive
20 | S=c1[nH]nc(-c2ccncc2)n1/N=C/C=C/c1ccco1 | 207 nM
21 | O=P(O)(O)C(O)(CCNC(=S)Nc1ccccc1)P(=O)(O)O | inactive
22 | COc1ccc(/C=C2\N=C(c3ccc4c(c3)OCO4)OC2=O)cc1Cl | 757 nM

Row | Structure (SMILES) | IC50
23 | O=S(=O)(c1ccccc1C(F)(F)F)N1CCC(c2nc3ccccc3[nH]2)CC1 | 470 nM
24 | CCCCOc1ccc(C(=O)N/C(=C/c2ccco2)C(=O)O)cc1 | inactive
25 | CN(C)CCn1nnnc1SCC1=C(C(=O)O)N2C(=O)[C@@H](NC(=O)Cc3csc(N)n3)[C@H]2SC1 | 215 nM
26 | O=S(=O)(O)c1ccc(N/N=C2\CCc3ccccc32)cc1 | > 2160 nM (inactive)
27 | CC1=C(C#N)C(c2cc3c(cc2[N+](=O)[O-])OCO3)C2=C(CCCC2=O)N1 (configuration not stated) | inactive
28 | c1cc2c(cc1CNc1nc(Nc3ccc(N4CCOCC4)cc3)c3ncn(C4CCCCC4)c3n1)OCO2 | inactive
29 | COc1cc(OC)c(C(=O)OC2CCCC2=O)cc1OC (configuration not stated) | inactive
30 | COc1cc(C(=O)N2CCN(Cc3ccccc3C)CC2)cc(OC)c1OC | > 5620 nM (inactive)
31 | O=S(=O)(O)c1cc(S(=O)(=O)O)c2cc(O)c(S(=O)(=O)O)cc2c1 | 156 nM
32 | CC1=NN(c2ccc(C(=O)O)c(N)c2)C(=O)C1 | inactive
33 | O=C(O)c1cccc(-n2cccc2/C=C2/NC(=O)N(c3ccc(Cl)cc3)C2=O)c1 | 42.2 nM
34 | N#CC(C#N)=Cc1cccn1-c1ccc(C(=O)O)cc1 | inactive
35 | O=C(O)c1cc(-c2ccco2)nc2ccccc12 | inactive
36 | COc1cc(OC)c(CN2CCCC(O)C2)cc1Br (configuration not stated) | > 6480 nM (inactive)
37 | Cn1cc(-c2nc(Nc3ccc(-n4cnc(N5CCOCC5)n4)cc3)ncc2Br)cn1 | inactive
38 | O=C(/C=C/c1ccco1)NC(=S)Nc1cc(C(=O)O)ccc1Cl | 146 nM
39 | Cc1oc(C(=O)O)cc1CSCCSCc1cc(C(=O)O)oc1C | > 2160 nM (inactive)
40 | O=C1S/C(=C\c2ccco2)C(=O)N1c1ccccc1Cl | 809 nM
41 | C[C@H]1C(=O)N2CCN(C(=O)NCc3ccccc3)C[C@@H]2C(=O)N1C | inactive
42 | O=C(O)/C=C/c1ccc([N+](=O)[O-])o1 | inactive
43 | CCOc1cc(-c2ccc(I)o2)cc(=O)c2c(C)oc(C)c12 | 2.55 nM
44 | CC(C)NC(=O)c1cccc(NC(=O)Nc2ccc(-c3ncnc4[nH]cc(Cl)c34)cc2)c1 | 676 nM

Row | Structure (SMILES) | IC50
45 | CCC(C)C(=O)NCc1nnc2n1CCN(C/C=C/c1ccco1)CC2 (configuration not stated) | 570 nM
46 | CN1CC(=O)N2CCN(C(=O)NC3CCCCC3)C[C@@H]2C1=O | inactive
47 | COC(=O)CSc1nnc(-c2ccco2)n1Cc1ccco1 | 99.3 nM
48 | CCN1CCN(Cc2coc3ccccc3c2=O)CC1 | > 6480 nM (inactive)
49 | CN(CCOC(=O)/C=C/c1ccco1)Cc1ccccc1 | 48.3 nM
50 | CN(C)C(=O)N1CCN(S(=O)(=O)c2cccc([N+](=O)[O-])c2)CC1 | > 6480 nM (inactive)
51 | N#CC1=c2/c(=C/c3ccco3)c(N)c(C#N)n2C(=O)C(c2ccco2)S1 (configuration not stated) | 28.1 nM
52 | O=C(O)c1cc(N/N=C/c2ccc(N3CCOCC3)s2)ccc1Cl | 116 nM
53 | C[C@@H](O)[C@@H]1NC(=O)[C@H]2CN(C(=O)NCc3ccccc3)CCN2C1=O | > 2160 nM (inactive)
54 | C/C(=N\Nc1ccc(S(=O)(=O)O)cc1)c1cccc(Br)c1 | inactive
55 | c1ccc2c(c1)ncn2CC1CCN(Cc2cn3ccccc3n2)CC1 | inactive
56 | c1ccc(-c2ccc(OCCCCn3cncn3)cc2)cc1 | inactive
57 | COc1cc(N2CCOCC2)ccc1Nc1cc(Nc2ccccc2-n2cccn2)c(C(F)(F)F)cn1 | inactive
58 | O=P(O)(O)C(Sc1ccc(Cl)cc1)P(=O)(O)O | 62.6 nM
59 | CCOC(=O)C1C2NC(=S)N(CC)C1(C)Oc1ccc(Cl)cc12 (configuration not stated) | inactive
60 | COc1cc2cc3c(N)c(C(=O)Nc4sc(C)c(C)c4C#N)sc3nc2cc1OC | 409 nM
61 | O=C(COC(=O)/C=C/c1ccco1)NCc1ccco1 | 393 nM
62 | COc1cc(CN2CCN(C3CCCC3)CC2)cc(OC)c1OC | > 6480 nM (inactive)
63 | O=C(OC1CCOC1=O)c1cc(-c2ccco2)nc2ccccc12 (configuration not stated) | 338 nM
64 | COC(=O)CCc1cc2c(C)cc(=O)oc2cc1OCc1ccc(C)cc1 | > 6480 nM (inactive)
65 | COC(=O)CSc1nnc(-c2cnccn2)n1C | > 6480 nM (inactive)
66 | CC(C)N(C)CCOC(=O)/C=C/c1ccco1 | inactive

Row | Structure (SMILES) | IC50
67 | O=C1N[C@@H](Cc2ccc(O)cc2)C(=O)N2CCN(C(=O)NC3CCCCC3)C[C@H]12 | > 2160 nM (inactive)
68 | COc1cc(OC)c(OC)cc1CN1CCN(Cc2ccc(C)cc2)CC1 | > 5760 nM (inactive)
69 | Cc1ccc(N2C(=O)C3C(C2=O)C2(CO)C=CC3(C)O2)cc1[N+](=O)[O-] (configuration not stated) | > 6480 nM (inactive)
70 | CC(C)[C@H]1NC(=O)[C@H]2CN(C(=O)NCc3ccccc3)CCN2C1=O | inactive
71 | CN(C)CCCNC(=O)c1cccc(CN(C(=O)c2nc3ccc(-c4cn[nH]c4)cc3s2)C2CC2)c1 | inactive
72 | O=C(NNC(=O)c1cc(-c2ccco2)nc2ccccc12)NC1CCCCC1 | 126 nM
73 | Cc1ccc(N2C(=O)c3ccccc3NC2c2cccc([N+](=O)[O-])c2)cc1 (configuration not stated) | > 5150 nM (inactive)
74 | COc1ccc(OC)c(NC(=O)c2cc3ccc(O)cc3oc2=Nc2ccc(C(=O)O)cc2)c1 | 981 nM
75 | O=C1CCCC2=C1C(c1ccc([N+](=O)[O-])o1)C1=C(CCCC1=O)O2 | inactive
76 | CCOc1ncccc1C(=O)OCC(=O)Nc1oc(-c2ccco2)c(-c2ccco2)c1C#N | 557 nM
77 | O=C(O)c1ccc(CS(=O)(=O)c2ccccc2)o1 | 146 nM
78 | O=C1OC(c2cc(C3=N/C(=C\c4ccccc4)C(=O)O3)cc(C3=N/C(=C/c4ccccc4)C(=O)O3)c2)=N/C1=C\c1ccccc1 | 819 nM
79 | O=C(/C=C/c1ccco1)NCc1cccc(CNC(=O)/C=C/c2ccco2)c1 | 115 nM
80 | O=C(O)c1ccc(CNC(=O)c2cocc2C(=O)O)o1 | > 7320 nM (inactive)
81 | O=C(O)c1ccc(NC2OC(CO)C(O)C2O)cc1 (configuration not stated) | inactive
82 | C[C@@H](OCc1ccccc1)[C@@H]1NC(=O)[C@H]2CN(C(=O)NC3CCCCC3)CCN2C1=O | inactive
83 | NC(=O)Cn1cnc2sc3c(c2c1=O)CCC3 | inactive
84 | CN(C)CCN(C(=O)OCc1ccccc1)c1cc(-c2cn[nH]c2)ccc1NC(=O)OCc1ccccc1 | inactive
85 | O=C(NNC(=S)Nc1ccccc1)C(=O)NNC(=S)Nc1ccccc1 | inactive
86 | CCN(CC)C(=S)NC(=O)/C=C/c1ccco1 | 89.4 nM
87 | O=C1c2c(O)cccc2Cc2cccc(O)c21 | 232 nM
88 | COc1ccc(CC2NCCc3cc(OC)c(OC)cc32)cc1OC (configuration not stated) | 40 nM

Row | Structure (SMILES) | IC50
89 | CN(C)CCNc1nc(C2COc3ccccc3O2)nc2ccc(-c3cn[nH]c3)cc12 (configuration not stated) | inactive
90 | C=CCc1cc(Cl)ccc1OCCOCCNCCOC | > 6480 nM (inactive)
91 | CC(Oc1ccc2c(C(F)(F)F)cc(=O)oc2c1)C(=O)NN (configuration not stated) | inactive
92 | COCCCNC(=O)/C(C#N)=C/c1ccc(-c2ccc(C(=O)O)c(Cl)c2)o1 | inactive
93 | O=C(O)CSc1cc(Cl)c2nonc2c1[N+](=O)[O-] | inactive
94 | NC(=O)c1cc(NC(=O)COC(=O)COc2cccc(C(F)(F)F)c2)cc(C(N)=O)c1 | inactive
95 | CC(=O)NC1=NC(=O)/C(=C\c2ccc(Br)o2)S1 | 153 nM
96 | O=C(COc1ccccc1C(=O)OC1CCCC1=O)Nc1cccc(C(F)(F)F)c1 (configuration not stated) | inactive
97 | CC(O)C(=O)N/N=C/C=C/c1ccc([N+](=O)[O-])o1 (configuration not stated) | inactive
98 | O=C(CCc1ccco1)Nc1ccc(-c2cn3c4c(nnc3n2)CCCC4)cc1 | 32 nM
99 | CN(CCc1ccccn1)Cc1ccc(F)cc1 | inactive
100 | COc1ccccc1C1(NC(=O)CCCCC2SCC3NC(=O)NC32)CCCC1 (configuration not stated) | inactive
101 | CCc1ccc(CN2CCN(Cc3cc(OC)c(O)c(OC)c3)CC2)cc1 | > 5790 nM (inactive)
102 | O=C(Cc1cccs1)N/N=C\C=C\c1ccco1 | 85.5 nM
103 | CCOC(=O)N1CCC(NC(=O)CCc2nc(C3=CCN(C)CC3)no2)CC1 | inactive
104 | O=C(/C=C/c1ccco1)NC(=S)NNC(=O)c1ccccc1O | > 2160 nM (inactive)
105 | O=C(c1ccncc1)N1C2C=CC(C2)C1(C(F)(F)F)C(F)(F)F (configuration not stated) | inactive
106 | Cc1n[nH]c(=O)nc1NNc1ccc(C(=O)O)cc1 | inactive
107 | COc1cc(/C=N/N=C2\NC(=O)C(CC(=O)O)S2)ccc1OCc1ccc(C)cc1 (configuration not stated) | inactive
